{"source": "patent US4003887A", "about": "“Novel penicillins and their preparation” (Sumitomo Chemical Company, Limited, priority 1972, dated 1977)", "data": [{"tested_on": "Pseudomonas", "test": "not given", "conditions": "literature, words; cited from earlier work", "values": [{"molecule": "6 -(α-amino-isothiazolylacetamido)penicillanic acid", "antimicrobial activity against Pseudomonas": "do not exert any appreciable antimicrobial activity against Pseudomonas"}, {"molecule": "CC1(C)S[C@@H]2C(NC(=O)C(N)c3ccccc3)C(=O)N2[C@H]1C(=O)O", "note": "(stereo partly drawn) [Ampicillin, 6-(α-amino-phenylacetamido)penicillanic acid]", "antimicrobial activity against Pseudomonas": "do not exert any appreciable antimicrobial activity against Pseudomonas"}]}, {"tested_on": "gram-positive and gram-negative bacteria", "test": "not given", "conditions": "literature, words; cited from earlier work", "values": [{"molecule": "6 -(α-amino-isothiazolylacetamido)penicillanic acid", "inhibition of growth of gram-positive and gram-negative bacteria": "inhibit the growth of various gram-positive and gram-negative bacteria"}, {"molecule": "CC1(C)S[C@@H]2C(NC(=O)C(N)c3ccccc3)C(=O)N2[C@H]1C(=O)O", "note": "(stereo partly drawn) [Ampicillin, 6-(α-amino-phenylacetamido)penicillanic acid]", "inhibition of growth of gram-positive and gram-negative bacteria": "inhibit the growth of various gram-positive and gram-negative bacteria"}]}, {"tested_on": "Klebsiella pneumoniae PC1602", "test": "Minimal inhibitory concentration, agar dilution method", "format": "cell-based", "conditions": "not given", "excerpt": "When determined according to the agar dilution method, the penicillins (I) afford the minimal inhibitory concentrations against test microorganisms as shown in Table 2.", "units": {"MIC": "µg/mL", "Minimal inhibitory concentration": "µg/mL"}, "values": [{"molecule": "CCOC(=O)Oc1ccc([C@@H](NC(=O)c2cnc3cccnc3c2S)C(=O)N[C@@H]2C(=O)N3[C@@H]2SC(C)(C)[C@@H]3C(=O)O)cc1", "note": "[Example 39]", "MIC": 6.25}, {"molecule": "CC1(C)S[C@@H]2[C@H](NC(=O)[C@H](NC(=O)c3cnc4ccccc4c3O)c3ccc(O)c(Cl)c3)C(=O)N2[C@H]1C(=O)O", "note": "[Example 14]", "MIC": 25}, {"molecule": "CC1(C)S[C@@H]2[C@H](NC(=O)C(NC(=O)c3cnc4cccnc4c3O)c3cccc(O)c3)C(=O)N2[C@H]1C(=O)O", "note": "(stereo partly drawn) [Example 26]", "Minimal inhibitory concentration": 25}, {"molecule": "CCOC(=O)Oc1c(C(=O)N[C@@H](C(=O)N[C@@H]2C(=O)N3[C@@H]2SC(C)(C)[C@@H]3C(=O)O)c2ccc(OC(=O)OCc3ccccc3)cc2)cnc2cccnc12", "note": "[Example 5, D-α-(4-ethoxycarbonyloxy-1,5-naphthyridine-3-carboxamido)-p-benzyloxycarbonyloxybenzylpenicillin]", "MIC": 12.5}, {"molecule": "CCOC(=O)Oc1ccc([C@@H](NC(=O)c2cnc3cn[nH]c3c2O)C(=O)N[C@@H]2C(=O)N3[C@@H]2SC(C)(C)[C@@H]3C(=O)O)cc1", "note": "[Example 33]", "MIC": 12.5}, {"molecule": "Cc1ccc2ncc(C(=O)N[C@@H](C(=O)N[C@@H]3C(=O)N4[C@@H]3SC(C)(C)[C@@H]4C(=O)O)c3ccc(O)cc3)c(O)c2n1", "note": "[Example 18]", "MIC": 12.5}, {"molecule": "CC1(C)S[C@@H]2[C@H](NC(=O)[C@H](NC(=O)c3cnc4cc(C(F)(F)F)ccc4c3O)c3ccc(O)cc3)C(=O)N2[C@H]1C(=O)O", "note": "[Example 11]", "MIC": 0.78}, {"molecule": "CC1(C)S[C@@H]2[C@H](NC(=O)[C@H](NC(=O)c3cnc4ccc(N)nc4c3O)c3ccc(O)cc3)C(=O)N2[C@H]1C(=O)O", "note": "[Example 24]", "MIC": 12.5}, {"molecule": "CC1(C)S[C@@H]2[C@H](NC(=O)[C@H](NC(=O)c3cnc4ccc(O)nc4c3O)c3ccc(O)cc3)C(=O)N2[C@H]1C(=O)O", "note": "[Example 22]", "MIC": 12.5}, {"molecule": "CC(C)COC(=O)Oc1ccc([C@@H](NC(=O)c2cnc3nc(N(C)C)ncc3c2O)C(=O)N[C@@H]2C(=O)N3[C@@H]2SC(C)(C)[C@@H]3C(=O)O)cc1", "note": "[Example 30]", "MIC": 12.5}, {"molecule": "CCOC(=O)Oc1ccc([C@@H](NC(=O)c2cnc3ccc(SC)nc3c2O)C(=O)N[C@@H]2C(=O)N3[C@@H]2SC(C)(C)[C@@H]3C(=O)O)cc1", "note": "[Example 17]", "MIC": 3.13}, {"molecule": "CCOC(=O)Oc1ccc([C@@H](NC(=O)c2cnc3cccnc3c2O)C(=O)N[C@@H]2C(=O)N3[C@@H]2SC(C)(C)[C@@H]3C(=O)O)cc1", "note": "[Example 9, D-α-(4-hydroxy-1,5-naphthyridine-3-carboxamido)-p-ethoxycarbonyloxybenzylpenicillin]", "MIC": 12.5}, {"molecule": "CC1(C)S[C@@H]2[C@H](NC(=O)[C@H](NC(=O)c3cnc4cccnc4c3O)c3ccc(O)cc3)C(=O)N2[C@H]1C(=O)O", "note": "[Example 1, D-α-(4-hydroxy-1,5-naphthyridine-3-carboxyamido)-p-hydroxybenzylpenicillin]", "MIC": 12.5}, {"molecule": "CC1(C)S[C@@H]2[C@H](NC(=O)C(NC(=O)c3cnc4cccnc4c3O)c3ccc(O)cc3)C(=O)N2[C@H]1C(=O)O", "note": "(mixture of isomers) [Example 2, DL-α-(4-hydroxy-1,5-naphthyridine-3-carboxamido)-p-hydroxybenzylpenicillin]", "MIC": 25}, {"molecule": "CC1(C)S[C@@H]2[C@H](NC(=O)[C@H](NC(=O)c3cc4ccccc4nc3O)c3ccc(O)cc3)C(=O)N2[C@H]1C(=O)O", "note": "[Example 27]", "MIC": 12.5}, {"molecule": "CC1(C)S[C@@H]2[C@H](NC(=O)[C@H](NC(=O)c3cnc4cncnc4c3O)c3ccc(O)cc3)C(=O)N2[C@H]1C(=O)O", "note": "[Example 34]", "MIC": 12.5}, {"molecule": "CC1(C)S[C@@H]2[C@H](NC(=O)C(NC(=O)c3ccccn3)c3ccccc3)C(=O)N2[C@H]1C(=O)O", "note": "(stereo partly drawn) [R, reference compound]", "Minimal inhibitory concentration": 50}, {"molecule": "CCOC(=O)Oc1ccc([C@@H](NC(=O)c2cnc3ccccc3c2OC(=O)OCC)C(=O)N[C@@H]2C(=O)N3[C@@H]2SC(C)(C)[C@@H]3C(=O)O)cc1", "note": "[Example 12]", "MIC": 25}, {"molecule": "CCOC(=O)Oc1ccc([C@@H](NC(=O)c2cnc3cccnc3c2OC(=O)OCC)C(=O)N[C@@H]2C(=O)N3[C@@H]2SC(C)(C)[C@@H]3C(=O)O)cc1", "note": "[Example 37]", "MIC": 12.5}, {"molecule": "CC1(C)S[C@@H]2[C@H](NC(=O)C(NC(=O)c3cnc4ccccc4c3O)c3ccc(O)cc3)C(=O)N2[C@H]1C(=O)O", "note": "(mixture of isomers) [Example 6, DL-α-(4-hydroxyquinoline-3-carboxamido)-p-hydroxybenzylpenicillin]", "MIC": 25}, {"molecule": "CC1(C)S[C@@H]2[C@H](NC(=O)[C@H](NC(=O)c3cnc4ccccc4c3O)c3cccc(O)c3)C(=O)N2[C@H]1C(=O)O", "note": "[Example 13]", "MIC": 25}, {"molecule": "CC1(C)S[C@@H]2[C@H](NC(=O)C(NC(=O)c3cnc4cccnc4c3S)c3cc(Cl)c(O)c(Cl)c3)C(=O)N2[C@H]1C(=O)O", "note": "(stereo partly drawn) [Example 40]", "MIC": 25}, {"molecule": "CCOC(=O)Oc1ccc([C@@H](NC(=O)c2cnc3scnc3c2O)C(=O)N[C@@H]2C(=O)N3[C@@H]2SC(C)(C)[C@@H]3C(=O)O)cc1", "note": "[Example 42]", "MIC": 12.5}, {"molecule": "CCOC(=O)Oc1ccc([C@@H](NC(=O)c2cnc3cc([N+](=O)[O-])ccc3c2O)C(=O)N[C@@H]2C(=O)N3[C@@H]2SC(C)(C)[C@@H]3C(=O)O)cc1", "note": "[Example 20]", "MIC": 3.13}, {"molecule": "CC1(C)S[C@@H]2[C@H](NC(=O)[C@H](NC(=O)c3nnc4ccccc4c3O)c3ccc(O)cc3)C(=O)N2[C@H]1C(=O)O", "note": "[Example 8, D-α-(4-hydroxycinnoline-3-carboxamido)-p-hydroxybenzylpenicillin]", "MIC": 25}, {"molecule": "CCOC(=O)Oc1ccc(C(NC(=O)c2cnc3ccc(N(C)C)nc3c2O)C(=O)N[C@@H]2C(=O)N3[C@@H]2SC(C)(C)[C@@H]3C(=O)O)cc1", "note": "(mixture of isomers) [Example 3, DL-α-(4-hydroxy-6-dimethylamino-1,5-naphthyridine-3-carboxamido)-p-ethoxycarbonyloxybenzylpenicillin]", "MIC": 3.13}, {"molecule": "CCOC(=O)Oc1ccc([C@@H](NC(=O)c2cnc3c(OC)nc(OC)nc3c2O)C(=O)N[C@@H]2C(=O)N3[C@@H]2SC(C)(C)[C@@H]3C(=O)O)cc1", "note": "[Example 36]", "MIC": 25}, {"molecule": "COc1nc(OC)c2c(O)c(C(=O)N[C@@H](C(=O)N[C@@H]3C(=O)N4[C@@H]3SC(C)(C)[C@@H]4C(=O)O)c3ccc(O)cc3)cnc2n1", "note": "[Example 28]", "MIC": 12.5}, {"molecule": "CCOC(=O)Oc1ccc([C@@H](NC(=O)c2cnc3cc(Cl)ccc3c2O)C(=O)N[C@@H]2C(=O)N3[C@@H]2SC(C)(C)[C@@H]3C(=O)O)cc1", "note": "[Example 10]", "MIC": 3.13}, {"molecule": "COc1ccc2ncc(C(=O)N[C@@H](C(=O)N[C@@H]3C(=O)N4[C@@H]3SC(C)(C)[C@@H]4C(=O)O)c3ccc(O)cc3)c(O)c2n1", "note": "[Example 19]", "MIC": 12.5}, {"molecule": "CC(C)(C)C(=O)Oc1ccc([C@@H](NC(=O)c2cnc3ccccc3c2O)C(=O)N[C@@H]2C(=O)N3[C@@H]2SC(C)(C)[C@@H]3C(=O)O)cc1", "note": "[Example 4, D-α-(4-hydroxyquinoline-3-carboxamido)-p-pivaloyloxybenzylpenicillin]", "MIC": 12.5}, {"molecule": "Cc1nc(C)c2ncc(C(=O)N[C@@H](C(=O)N[C@@H]3C(=O)N4[C@@H]3SC(C)(C)[C@@H]4C(=O)O)c3ccc(O)cc3)c(O)c2n1", "note": "[Example 35]", "MIC": 12.5}, {"molecule": "CC1(C)S[C@@H]2[C@H](NC(=O)C(C(=O)O)c3ccccc3)C(=O)N2[C@H]1C(=O)O", "note": "(stereo partly drawn) [Carbenicillin, reference compound]", "MIC": "> 200"}, {"molecule": "COc1cnc2c(O)c(C(=O)N[C@@H](C(=O)N[C@@H]3C(=O)N4[C@@H]3SC(C)(C)[C@@H]4C(=O)O)c3ccc(O)cc3)cnc2n1", "note": "[Example 41]", "MIC": 25}, {"molecule": "CC1(C)S[C@@H]2[C@H](NC(=O)[C@H](NC(=O)c3cnc4cccnc4c3S)c3ccc(O)cc3)C(=O)N2[C@H]1C(=O)O", "note": "[Example 43]", "MIC": 6.25}, {"molecule": "CCOC(=O)Oc1ccc([C@@H](NC(=O)c2cnc3cc4c(cc3c2S)OCO4)C(=O)N[C@@H]2C(=O)N3[C@@H]2SC(C)(C)[C@@H]3C(=O)O)cc1", "note": "[Example 38]", "MIC": 6.25}, {"molecule": "CCOC(=O)Oc1ccc([C@@H](NC(=O)c2cnc3nc(C)ccc3c2O)C(=O)N[C@@H]2C(=O)N3[C@@H]2SC(C)(C)[C@@H]3C(=O)O)cc1", "note": "[Example 15]", "MIC": 12.5}, {"molecule": "CCOC(=O)Oc1ccc([C@@H](NC(=O)c2cnc3ccc(NC(C)=O)nc3c2O)C(=O)N[C@@H]2C(=O)N3[C@@H]2SC(C)(C)[C@@H]3C(=O)O)cc1", "note": "[Example 23]", "MIC": 25}, {"molecule": "CC1(C)S[C@@H]2[C@H](NC(=O)C(NC(=O)c3cnc4cccnc4c3O)c3cccc(O)c3)C(=O)N2[C@H]1C(=O)O", "note": "(stereo partly drawn) [Example 16]", "MIC": 25}, {"molecule": "CCOC(=O)Oc1ccc([C@@H](NC(=O)c2cnc3ccc(N(C)C)nc3c2O)C(=O)N[C@@H]2C(=O)N3[C@@H]2SC(C)(C)[C@@H]3C(=O)O)cc1Cl", "note": "[Example 25]", "MIC": 12.5}, {"molecule": "CC1(C)S[C@@H]2[C@H](NC(=O)[C@H](NC(=O)c3cnc4ccncc4c3O)c3ccc(O)cc3)C(=O)N2[C@H]1C(=O)O", "note": "[Example 29]", "MIC": 25}, {"molecule": "Cc1nc(C)c2c(O)c(C(=O)N[C@@H](C(=O)N[C@@H]3C(=O)N4[C@@H]3SC(C)(C)[C@@H]4C(=O)O)c3ccc(O)cc3)cnc2n1", "note": "[Example 31]", "MIC": 12.5}, {"molecule": "CC1(C)S[C@@H]2[C@H](NC(=O)[C@H](NC(=O)c3cnc4cccnc4c3O)c3ccc(O)c(Cl)c3)C(=O)N2[C@H]1C(=O)O", "note": "[Example 32]", "MIC": 25}, {"molecule": "Cc1ccc2c(O)c(C(=O)N[C@@H](C(=O)N[C@@H]3C(=O)N4[C@@H]3SC(C)(C)[C@@H]4C(=O)O)c3ccc(O)cc3)cnc2n1", "note": "[Example 7, D-α-(4-hydroxy-7-methyl-1,8-naphthyridine-3-carboxamido)-p-hydroxybenzylpenicillin]", "MIC": 12.5}]}]}
